{"source": "patent US9113629B2", "about": "“4-amino-6-(4-substituted-phenyl)-picolinates and 6-amino-2-(4-substituted-phenyl)-pyrimidine-4-carboxylates and their use as herbicides” (DOW AGROSCIENCES LLC, priority 2013, dated 2015)", "key": {"[1]": {"tested_on": "Key Broadleaf Weed and Crop Species", "test": "Post-emergent Test II herbicidal activity (Table 5)", "format": "in vivo", "conditions": "post-emergence, 336 h, post-emergent, 14 days after application; for pest or weed control at 70 g/ha: 70 g ai/ha; for pest or weed control at 140 g/ha: 140 g ai/ha", "summary_of_the_method": "(§1)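 Percent injury, 0 (none) to 100 (complete kill), was judged visually 14 d after spraying young plants at the first or second true leaf stage with compound in an acetone/DMSO aqueous carrier at 187 L/ha. Plants were kept in a greenhouse at 23–29 °C by day.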"}, "[2]": {"tested_on": "Key Grass and Sedge Weeds as well as Grass Crops", "test": "Post-emergent Test II herbicidal activity (Table 6)", "format": "in vivo", "conditions": "post-emergence, 336 h; for pest or weed control at 70 g/ha: application rate 70 g ai/ha; for pest or weed control at 140 g/ha: application rate 140 g ai/ha", "summary_of_the_method": "as §1"}, "[3]": {"conditions": "ABUTH: velvetleaf (Abutilon theophrasti), read-out: Visual Growth Reduction (%) 14 Days After Application ABUTH"}, "[4]": {"conditions": "AMARE: redroot pigweed (Amaranthus retroflexus), read-out: Visual Growth Reduction (%) 14 Days After Application AMARE"}, "[5]": {"conditions": "BRSNN: oilseed-rape, canola (Brassica napus), read-out: Visual Growth Reduction (%) 14 Days After Application BRSNN"}, "[6]": {"conditions": "CHEAL: lambsquarters (Chenopodium album), read-out: Visual Growth Reduction (%) 14 Days After Application CHEAL"}, "[7]": {"conditions": "EPHHL: wild poinsettia (Euphorbia heterophylla), read-out: Visual Growth Reduction (%) 14 Days After Application EPHHL"}, "[8]": {"conditions": "HELAN: sunflower (Helianthus annuus), read-out: Visual Growth Reduction (%) 14 Days After Application HELAN"}, "[9]": {"conditions": "VIOTR: wild pansy (Viola tricolor), read-out: Visual Growth Reduction (%) 14 Days After Application VIOTR"}, "[10]": {"conditions": "Triticum aestivum, TRZSS (wheat), read-out: Visual Growth Reduction (%) 14 Days After Application, TRZSS"}, "[11]": {"conditions": "CYPES: yellow nutsedge (Cyperus esculentus), read-out: Visual Growth Reduction (%) 14 Days After Application, CYPES"}, "[12]": {"conditions": "DIGSA: crabgrass (Digitaria sanguinalis), read-out: Visual Growth Reduction (%) 14 Days After Application, DIGSA"}, "[13]": {"conditions": "ECHCG: barnyardgrass (Echinochloa crus-galli), read-out: Visual Growth Reduction (%) 14 Days After Application, ECHCG"}, "[14]": {"conditions": "ORYSA: rice (Oryza sativa), read-out: Visual Growth Reduction (%) 14 Days After Application, ORYSA"}, "[15]": {"conditions": "SETFA: giant foxtail (Setaria faberi), read-out: Visual Growth Reduction (%) 14 Days After Application, SETFA"}, "[16]": {"conditions": "SORVU: grain sorghum (Sorghum vulgare), read-out: Visual Growth Reduction (%) 14 Days After Application, SORVU"}, "[17]": {"conditions": "ZEAMX: maize, corn (Zea mays), read-out: Visual Growth Reduction (%) 14 Days After Application, ZEAMX"}}, "note": "Where two headings read alike, the source gives them in different places."}
{"smiles": "COC(=O)c1nc(-c2ccc(C#N)cc2)c(C)c(N)c1Cl", "note": "[Compound 83, Methyl 4-amino-3-chloro-6-(4-cyanophenyl)-5-methylpicolinate]", "values": [{"measurement": "pest or weed control at 70 g/ha", "setting": "[1]; [3]", "result": "0 to 29", "unit": "%"}, {"measurement": "pest or weed control at 140 g/ha", "setting": "[1]; [3]", "result": "30 to 44", "unit": "%"}, {"measurement": "pest or weed control at 70 g/ha", "setting": "[1]; [4]", "result": "0 to 29", "unit": "%"}, {"measurement": "pest or weed control at 140 g/ha", "setting": "[1]; [4]", "result": "0 to 29", "unit": "%"}, {"measurement": "pest or weed control at 70 g/ha", "setting": "[1]; [5]", "result": "0 to 29", "unit": "%"}, {"measurement": "pest or weed control at 140 g/ha", "setting": "[1]; [5]", "result": "0 to 29", "unit": "%"}, {"measurement": "pest or weed control at 70 g/ha", "setting": "[1]; [6]", "result": "0 to 29", "unit": "%"}, {"measurement": "pest or weed control at 140 g/ha", "setting": "[1]; [6]", "result": "0 to 29", "unit": "%"}, {"measurement": "pest or weed control at 70 g/ha", "setting": "[1]; [7]", "result": "0 to 29", "unit": "%"}, {"measurement": "pest or weed control at 140 g/ha", "setting": "[1]; [7]", "result": "0 to 29", "unit": "%"}, {"measurement": "pest or weed control at 70 g/ha", "setting": "[1]; [8]", "result": "85 to 94", "unit": "%"}, {"measurement": "pest or weed control at 140 g/ha", "setting": "[1]; [8]", "result": "85 to 94", "unit": "%"}, {"measurement": "pest or weed control at 70 g/ha", "setting": "[1]; [9]", "result": "0 to 29", "unit": "%"}, {"measurement": "pest or weed control at 140 g/ha", "setting": "[1]; [9]", "result": "0 to 29", "unit": "%"}, {"measurement": "pest or weed control at 70 g/ha", "setting": "[2]; [10]", "result": "0 to 29", "unit": "%"}, {"measurement": "pest or weed control at 140 g/ha", "setting": "[2]; [10]", "result": "0 to 29", "unit": "%"}, {"measurement": "pest or weed control at 70 g/ha", "setting": "[2]; [11]", "result": "0 to 29", "unit": "%"}, {"measurement": "pest or weed control at 140 g/ha", "setting": "[2]; [11]", "result": "0 to 29", "unit": "%"}, {"measurement": "pest or weed control at 70 g/ha", "setting": "[2]; [12]", "result": "0 to 29", "unit": "%"}, {"measurement": "pest or weed control at 140 g/ha", "setting": "[2]; [12]", "result": "0 to 29", "unit": "%"}, {"measurement": "pest or weed control at 70 g/ha", "setting": "[2]; [13]", "result": "0 to 29", "unit": "%"}, {"measurement": "pest or weed control at 140 g/ha", "setting": "[2]; [13]", "result": "0 to 29", "unit": "%"}, {"measurement": "pest or weed control at 70 g/ha", "setting": "[2]; [14]", "result": "0 to 29", "unit": "%"}, {"measurement": "pest or weed control at 140 g/ha", "setting": "[2]; [14]", "result": "0 to 29", "unit": "%"}, {"measurement": "pest or weed control at 70 g/ha", "setting": "[2]; [15]", "result": "0 to 29", "unit": "%"}, {"measurement": "pest or weed control at 140 g/ha", "setting": "[2]; [15]", "result": "0 to 29", "unit": "%"}, {"measurement": "pest or weed control at 70 g/ha", "setting": "[2]; [16]", "result": "0 to 29", "unit": "%"}, {"measurement": "pest or weed control at 140 g/ha", "setting": "[2]; [16]", "result": "0 to 29", "unit": "%"}, {"measurement": "pest or weed control at 70 g/ha", "setting": "[2]; [17]", "result": "0 to 29", "unit": "%"}, {"measurement": "pest or weed control at 140 g/ha", "setting": "[2]; [17]", "result": "0 to 29", "unit": "%"}]}
